From patent publication US12157730B2, “Heteroaryl derivative, method for producing same, and pharmaceutical composition comprising same as effective component” (VORONOI INC., priority 2019, dated 2024)

molecular target: T1, Ba/F3 cell EGFR Exon20 ins NPH (Homo sapiens, UniProt P00533, INS773NPH); test: Ba/F3 cell proliferation suppression, EGFR Exon20 ins NPH; format: cell-based; conditions: GI50 class; Ba/F3 cell line with NPH inserted at Exon20 of EGFR; 72 hours
T1 construct: expressed in transfected cells; host or cells: Ba/F3
Method in brief: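 Cells were seeded 24 h before dosing and then treated for 72 hours with compound at final concentrations of 0.3 nM to 50 um. Live cells were measured by CellTiter-Glo luminescence, and GI50 values were derived from growth ratio relative to control across three repeats.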

Row | Ba/F3 (NPH) Activity | SMILES
1 | A (GI50 < 50 nM) | C=CC(=O)Nc1cc(Nc2cc(N3OCC[C@@H]3c3ccc(F)cc3)ncn2)c(OC)cc1N1CCC(N2C[C@@H](C)O[C@@H](C)C2)CC1 [compound 814, N-(2-(4-((2S,6R)-2,6-dimethylmorpholino)piperidine-1-yl)-5-((6-((R)-3-(4-fluorophenyl)isoxazolidine-2-yl)pyrimidine-4-yl)amino)-4-methoxyphenyl) acrylamide]
2 | A (GI50 < 50 nM) | C=CC(=O)Nc1cc(Nc2cc(N3OCC[C@@H]3c3cc(F)ccc3F)ncn2)c(OC)cc1N1C[C@@H](C)N(CC)[C@@H](C)C1 [compound 878, N-(5-((6-((R)-3-(2,5-difluorophenyl)isoxazolidine-2-yl)pyrimidine-4-yl)amino)-2-((3S,5R)-4-ethyl-3,5-dimethylpiperazine-1-yl)-4-methoxyphenyl) acrylamide]
3 | A (GI50 < 50 nM) | C=CC(=O)Nc1cc(Nc2cc(N3OCC[C@@H]3c3cccc(Cl)c3F)ncn2)c(OC)cc1N1CCC(N2CCN(C3CC3)[C@@H](C)C2)CC1 [Example 179, N-(5-((6-((R)-3-(3-chloro-2-fluorophenyl)isoxazolidine-2-yl)pyrimidine-4-yl)amino)-2-(4-((S)-4-cyclopropyl-3-methylpiperazine-1-yl)piperidine-1-yl)-4-methoxyphenyl) acrylamide]
4 | A (GI50 < 50 nM) | C=CC(=O)Nc1cc(Nc2cc(N3OCC[C@@H]3c3cccc(Cl)c3Cl)ncn2)c(OC)cc1N1CCC(N2CCN(C)CC2)CC1 [compound 565, N-(5-((6-((R)-3-(2,3-dichlorophenyl)isoxazolidine-2-yl)pyrimidine-4-yl)amino)-4-methoxy-2-(4-(4-methylpiperazine-1-yl)piperidine-1-yl)phenyl) acrylamide]
5 | A (GI50 < 50 nM) | C=CC(=O)Nc1cc(Nc2cc(N3OCC[C@@H]3c3cc(F)ccc3F)ncn2)c(OC)cc1N1C[C@H]2C[C@@H]1CO2 [compound 328, N-(2-((1R,4R)-2-oxa-5-azabicyclo[2.2.1]heptane-5-yl)-5-((6-((R)-3-(2,5-difluorophenyl)isoxazolidine-2-yl)pyrimidine-4-yl)amino)-4-methoxyphenyl) acrylamide]
6 | B (50 nM ≤ GI50 < 500 nM) | C=CC(=O)Nc1cc(Nc2cc(N3OCC[C@@H]3c3ccc(C)nc3)ncn2)c(OC)cc1N1CCC(N(C)C)CC1 [Example 50, N-(2-(4-dimethylaminopiperidine-1-yl)-4-methoxy-5-((6-((R)-3-(6-methylpyridine-3-yl)isoxazolidine-2-yl)pyrimidine-4-yl)amino)phenyl) acrylamide]
7 | A (GI50 < 50 nM) | C=CC(=O)Nc1cc(Nc2cc(N3OCC[C@@H]3c3cccc(C)c3F)ncn2)c(OC)cc1N1CCC(N2C[C@H]3C[C@@H]2CO3)CC1 [compound 320, N-(2-(4-((1R,4R)-2-oxa-5-azabicyclo[2.2.1]heptane-5-yl)piperidine-1-yl)-5-((6-((R)-3-(2-fluoro-3-methylphenyl)isoxazolidine-2-yl)pyrimidine-4-yl)amino)-4-methoxyphenyl) acrylamide]
8 | A (GI50 < 50 nM) | C=CC(=O)Nc1cc(Nc2cc(N3OCC[C@@H]3c3ccccc3)ncn2)c(OC)cc1N1CCN(CCN(C)C)CC1 [Example 278, N-(2-(4-(2-(dimethylamino)ethyl)piperazine-1-yl)-4-methoxy-5-((6-((R)-3-phenylisoxazolidine-2-yl)pyrimidine-4-yl)amino)phenyl) acrylamide]
9 | B (50 nM ≤ GI50 < 500 nM) | C=CC(=O)Nc1cc(Nc2cc(N3OCC[C@@H]3c3cccc4ccccc34)ncn2)c(OC)cc1N1CCN(C)CC1 [compound 441, N-(4-methoxy-2-(4-methylpiperazine-1-yl)-5-((6-((R)-3-(naphthalene-1-yl)isoxazolidine-2-yl)pyrimidine-4-yl)amino)phenyl) acrylamide]
10 | B (50 nM ≤ GI50 < 500 nM) | C=CC(=O)Nc1cc(Nc2cc(N3OCC[C@@H]3Cc3cccc(Cl)c3C)ncn2)c(OC)cc1N1CCN(C2CC2)CC1 [compound 1026, N-(5-((6-((S)-3-(3-chloro-2-methylbenzyl)isoxazolidine-2-yl)pyrimidine-4-yl)amino)-2-(4-cyclopropylpiperazine-1-yl)-4-methoxyphenyl) acrylamide]
11 | A (GI50 < 50 nM) | C=CC(=O)Nc1cc(Nc2cc(N3OCC[C@@H]3c3cccc(Cl)c3Cl)ncn2)c(OC)cc1N1CCN(C(C)=O)CC1 [compound 519, N-(2-(4-acetylpiperazine-1-yl)-5-((6-((R)-3-(2,3-dichlorophenyl)isoxazolidine-2-yl)pyrimidine-4-yl)amino)-4-methoxyphenyl) acrylamide]
12 | A (GI50 < 50 nM) | C=CC(=O)Nc1cc(Nc2cc(N3OCC[C@@H]3c3cccc(C)c3F)ncn2)c(OC)cc1N1CCC(N2CCN(CC)CC2)CC1 [compound 318, N-(2-(4-(4-ethylpiperazine-1-yl)piperidine-1-yl)-5-((6-((R)-3-(2-fluoro-3-methylphenyl)isoxazolidine-2-yl)pyrimidine-4-yl)amino)-4-methoxyphenyl) acrylamide]
13 | A (GI50 < 50 nM) | C=CC(=O)Nc1cc(Nc2cc(N3OCC[C@@H]3c3cccc(C)c3F)ncn2)c(OC)cc1N1CCOCC1 [compound 844, N-(5-((6-((R)-3-(2-fluoro-3-methylphenyl)isoxazolidine-2-yl)pyrimidine-4-yl)amino)-4-methoxy-2-morpholinophenyl) acrylamide]
14 | A (GI50 < 50 nM) | C=CC(=O)Nc1cc(Nc2cc(N3OCC[C@@H]3Cc3ccccc3)ncn2)c(OC)cc1N1CCN(C(C)=O)CC1 [compound 948, N-(2-(4-acetylpiperazine-1-yl)-5-((6-((S)-3-benzylisoxazolidine-2-yl)pyrimidine-4-yl)amino)-4-methoxyphenyl) acrylamide]
15 | A (GI50 < 50 nM) | C=CCN1CCN(C2CCN(c3cc(OC)c(Nc4cc(N5OCC[C@@H]5c5cccc(F)c5F)ncn4)cc3NC(=O)C=C)CC2)CC1 [Example 209, N-(2-(4-(4-allylpiperazine-1-yl)piperidine-1-yl)-5-((6-((R)-3-(2,3-difluorophenyl)isoxazolidine-2-yl)pyrimidine-4-yl)amino)-4-methoxyphenyl) acrylamide]
16 | A (GI50 < 50 nM) | C=CC(=O)Nc1cc(Nc2cc(N3OCC[C@@H]3c3ccc(F)c(F)c3)ncn2)c(OC)cc1N1CCC(N(C)C)CC1 [compound 459, N-(5-((6-((R)-3-(3,4-difluorophenyl)isoxazolidine-2-yl)pyrimidine-4-yl)amino)-2-(4-(dimethylamino)piperidine-1-yl)-4-methoxyphenyl) acrylamide]
17 | A (GI50 < 50 nM) | C=CC(=O)Nc1cc(Nc2cc(N3OCC[C@@H]3c3cccc(Cl)c3C)ncn2)c(OC)cc1N1CC[C@@H](N(C)C)C1 [compound 586, N-(5-((6-((R)-3-(3-chloro-2-methylphenyl)isoxazolidine-2-yl)pyrimidine-4-yl)amino)-2-((R)-3-(dimethylamino)pyrolidine-1-yl)-4-methoxyphenyl) acrylamide]
18 | A (GI50 < 50 nM) | C=CC(=O)Nc1cc(Nc2cc(N3OCC[C@@H]3c3ccc(F)cc3)ncn2)c(OC)cc1N1CCC(N2CCC(N(C)C)CC2)CC1 [compound 870, N-(2-(4-(dimethylamino)-[1,4'-bipiperidine]-1'-yl)-5-((6-((R)-3-(4-fluorophenyl)isoxazolidine-2-yl)pyrimidine-4-yl)amino)-4-methoxyphenyl) acrylamide]
19 | A (GI50 < 50 nM) | C=CC(=O)Nc1cc(Nc2cc(N3OCC[C@@H]3c3ccc(Cl)c(Cl)c3F)ncn2)c(OC)cc1N1CCC(N2CCN(C3CC3)CC2)CC1 [Example 60, N-(2-(4-(4-cyclopropylpiperazine-1-yl)piperidine-1-yl)-5-((6-((R)-3-(3,4-dichloro-2-fluorophenyl)isoxazolidine-2-yl)pyrimidine-4-yl)amino)-4-methoxyphenyl) acrylamide;]
20 | A (GI50 < 50 nM) | C=CC(=O)Nc1cc(Nc2cc(N3OCC[C@@H]3c3ccc(F)cc3F)ncn2)c(OC)cc1N1CCN(C2CCCC2)CC1 [compound 348, N-(2-(4-cyclopentylpiperazine-1-yl)-5-((6-((R)-3-(2,4-difluorophenyl)isoxazolidine-2-yl)pyrimidine-4-yl)amino)-4-methoxyphenyl) acrylamide]
21 | A (GI50 < 50 nM) | C=CC(=O)Nc1cc(Nc2cc(N3OCC[C@@H]3c3cc(F)cc(F)c3)ncn2)c(OC)cc1N1CCC(N2C[C@@H](C)O[C@@H](C)C2)CC1 [Example 266, N-(5-((6-((R)-3-(3,5-difluorophenyl)isoxazolidine-2-yl)pyrimidine-4-yl)amino)-2-(4-((2S,6R)-2,6-dimethylmorpholino)piperidine-1-yl)-4-methoxyphenyl) acrylamide]
22 | A (GI50 < 50 nM) | C=CC(=O)Nc1cc(Nc2cc(N3OCC[C@@H]3c3cccc(F)c3Cl)ncn2)c(OC)cc1N1CCC(N2C[C@@H]3CCN(C)[C@@H]3C2)CC1 [compound 448, N-(5-((6-((R)-3-(2-chloro-3-fluorophenyl)isoxazolidine-2-yl)pyrimidine-4-yl)amino)-4-methoxy-2-(4-((3aS,6aS)-1-methylhexahydropyrrolo [3,4-b]pyrrole-5(1H)-yl)piperidine-1-yl)phenyl)acrylamide]
23 | C (500 nM ≤ GI50 < 5000 nM) | C=CC(=O)Nc1cc(Nc2cc(N3OCC[C@H]3Cc3ccccc3)ncn2)c(OC)cc1N1CCN(C2CCOCC2)CC1 [compound 975, N-(5-((6-((R)-3-benzylisoxazolidine-2-yl)pyrimidine-4-yl)amino)-4-methoxy-2-(4-(tetrahydro-2H-pyran-4-yl)piperazine-1-yl)phenyl)acrylamide]
